Like-named read-outs stand apart in the source and are kept apart here.
Assays:
Assay in all cases: Sensitization to antibiotics: MIC in medium supplemented with phytoglycogen
[1] = tested on: E. coli AB264; type: cell-based; settings: Escherichia coli; for fold-change reduction in MIC, CP0.125: cationized phytoglycogen at 0.125 of its MIC; for fold-change reduction in MIC, CP0.25: cationized phytoglycogen at 0.25 of its MIC; for fold-change reduction in MIC, CP0.5: cationized phytoglycogen at half-strength of its MIC
[2] = tested on: P. aeruginosa PAO1; type: cell-based, Pseudomonas aeruginosa; settings: for ↓ Fold-change in MIC (cationized phytoglycogen) MIC.5 mg/ml: 0.5 mg cationized phytoglycogen · ml^−1 Mueller-Hinton Broth; for ↓ Fold-change in MIC (cationized phytoglycogen) MIC1 mg/ml: 1 mg cationized phytoglycogen · ml^−1 Mueller-Hinton Broth; for ↓ Fold-change in MIC (cationized phytoglycogen) MIC10 mg/ml: 10 mg cationized phytoglycogen · ml^−1 Mueller-Hinton Broth
Protocol: MIC assays as defined in Example 15 were performed in sterile and untreated 96 well microtitre plates according to the broth micro-dilution technique described in either the Clinical and Laboratory Standards Institute document M07-A9: Methods for Dilution Antimicrobial Susceptibility Tests for Bacteria that Grow Aerobically; Approved Standard and document M27-A2 Reference Method for Broth Dilution Antifungal Susceptibility Testing of Yeasts; Approved Standard—Second Edition, with the exception that, where indicated, medium was additionally supplemented with native or cationized phytoglycogen. Assessments done using C. utilis ATCC9950, B. subtilis 168 and E. coli AB264 employed native or cationized phytoglycogen at concentrations ⅛, ¼, ½ their respective MIC values for cationized phytoglycogen. Assessments of the opportunistic pathogen P. aeruginosa PAO1 were made at final in-assay concentrations of 0.5, 1 or 10 mg native or cationized phytoglycogen.ml^−1. Experiments were performed as in-assay duplicates, and were repeated a minimum of three times (n=6).
MIC assays were performed in duplicate within each experiment and were repeated a minimum three times to confirm the data (n=6). MIC values with a four-fold or greater change relative to the non-supplemented medium MIC represent a statistically-significant change in MIC value. Only those antibiotic-cationized phytoglycogen combinations which caused a four-fold change relative to the non-supplemented medium MIC were deemed as indicative of resulting in potentiation (MIC value was less), or tolerance (MIC value increased).

[3] = tested on: B. subtilis 168; type: cell-based; settings: Bacillus subtilis; for fold-change reduction in MIC, CP0.125: cationized phytoglycogen at 0.125 of its MIC; for fold-change reduction in MIC, CP0.25: cationized phytoglycogen at 0.25 of its MIC; for fold-change reduction in MIC, CP0.5: cationized phytoglycogen at half-strength of its MIC
[4] = Pseudomonas aeruginosa, PAO1, P. aeruginosa, non-supplemented Mueller-Hinton Broth, read-out: MIC
[5] = P. aeruginosa, non-supplemented Mueller-Hinton Broth

Molecule	fold-change reduction in MIC, CP0.125 [1]	fold-change reduction in MIC, CP0.25 [1]	fold-change reduction in MIC, CP0.5 [1]	↓ Fold-change in MIC (cationized phytoglycogen) MIC.5 mg/ml ([2]; P. aeruginosa)	↓ Fold-change in MIC (cationized phytoglycogen) MIC1 mg/ml ([2]; P. aeruginosa)	↓ Fold-change in MIC (cationized phytoglycogen) MIC10 mg/ml ([2]; P. aeruginosa)	MIC [2, 4] [µg/mL]	fold-change reduction in MIC, CP0.125 [3]	fold-change reduction in MIC, CP0.25 [3]	fold-change reduction in MIC, CP0.5 [3]	MIC [2, 5] [µg/mL]	MIC ([2]; Pseudomonas aeruginosa, PAO1, read-out: MIC (μg · ml^−1)) [µg/mL]
CC1(C)S[C@@H]2[C@H](NC(=O)[C@H](N)c3ccccc3)C(=O)N2[C@H]1C(=O)O [ampicillin]	1-2 fold	1-2 fold	1-2 fold	↓ 8 fold	↓ 8-16 fold	2 fold	1020	1 fold	1 fold	2 fold		
CC1(C)S[C@@H]2[C@H](NC(=O)C(C(=O)O)c3ccccc3)C(=O)N2[C@H]1C(=O)O (some centres unmarked) [carbenicillin]	1-2 fold	↓4-8 ^ fold	↓8-16^ fold	↓ 16-32 fold	↓ 32 fold	↓ 8-16 fold	64	1 fold	2 fold	↓4-8 fold		
CC(C)(O/N=C(\C(=O)N[C@@H]1C(=O)N2C(C(=O)[O-])=C(C[n+]3ccccc3)CS[C@H]12)c1csc(N)n1)C(=O)O [ceftazidime]				↓ 8 fold	↓ 32-64 fold	↓ 4-8 fold	2					
O=C(N[C@H](CO)[C@H](O)c1ccc([N+](=O)[O-])cc1)C(Cl)Cl [chloramphenicol]	1-2 fold	1-2 fold	1-2 fold	↓ 4 fold	↓ 8 fold	2 fold	64	1 fold	↓2-4 fold			
CC[C@H]1OC(=O)[C@H](C)[C@@H](O[C@H]2C[C@@](C)(OC)[C@@H](O)[C@H](C)O2)[C@H](C)[C@@H](O[C@@H]2O[C@H](C)C[C@H](N(C)C)[C@H]2O)[C@](C)(O)C[C@@H](C)C(=O)[C@H](C)[C@@H](O)[C@]1(C)O [erythromycin]	1-2 fold	1-2 fold	1-2 fold	↓ 4 fold	↓ 8 fold	1-2 fold	128	1-2 fold	↓2-4 fold	↓2-4 fold		
CCn1cc(C(=O)O)c(=O)c2ccc(C)nc21 [nalidixic acid]				↓ 4-32 fold	↓ 16-32 fold	↓ 8-16 fold	1020					
CO[C@@H]1[C@@H](OC(N)=O)[C@@H](O)[C@H](Oc2ccc3c(O)c(NC(=O)c4ccc(O)c(CC=C(C)C)c4)c(=O)oc3c2C)OC1(C)C [novobiocin]				↓ 4-16 fold	↓ 16-32 fold	↓ 4 fold	2050					
CC1(C)S[C@@H]2[C@H](NC(=O)Cc3ccccc3)C(=O)N2[C@H]1C(=O)O [penicillin G]	1-2 fold	↓4-8 ^ fold	↓8 fold	↓ 16-32 fold	↓64-128 fold	↓ 2-4 fold		1-2 fold	↓8-16 fold	↓16-32 fold	12500	
CN(C)[C@@H]1C(O)=C(C(N)=O)C(=O)[C@@]2(O)C(O)=C3C(=O)c4c(O)cccc4[C@@](C)(O)[C@H]3C[C@@H]12 [tetracycline]				↓ 8 fold	↓ 8 fold	2 fold	16 to 32					
CN[C@H](CC(C)C)C(=O)N[C@H]1C(=O)N[C@@H](CC(N)=O)C(=O)N[C@H]2C(=O)N[C@H]3C(=O)N[C@H](C(=O)N[C@H](C(=O)O)c4cc(O)cc(O)c4-c4cc3ccc4O)[C@H](O)c3ccc(c(Cl)c3)Oc3cc2cc(c3O[C@@H]2O[C@H](CO)[C@@H](O)[C@H](O)[C@H]2O[C@H]2C[C@](C)(N)[C@H](O)[C@H](C)O2)Oc2ccc(cc2Cl)[C@H]1O [vancomycin]	1-2 fold	↓2-4 ^ fold	↓4-16^ fold	↓ 2-4 fold	↓ 16 fold	↓ 4 fold		1 fold	1 fold	1-2 fold		1020
gentamicin	1-2 fold	2 fold	↓4-8 ^ fold	2 fold	2 fold	1 fold		1-2 fold	↓2-4 fold	↓4-8 fold	0.5	
polymyxin B [polymixin B]				1-2 fold	↓ 2-4 fold	2 fold					0.125 to 0.25	

Reference: patent US20190125896A1, “ANTI-INFECTIVE COMPOSITIONS COMPRISING PHYTOGLYCOGEN NANOPARTICLES” (MIREXUS BIOTECHNOLOGIES INC., priority 2016, published 2019)
